In PMC3445516 (PLoS ONE, 2012):
Read-outs that look alike come from different tables or passages of the source.

Assays:
Experiment in all cases: Ambit kinase profiling, competition binding
CAMKIα = molecular target: T1, CAMKIα (Homo sapiens, UniProt Q14012); details: for competition: CAMKIα, 10 µM
T1 construct: purchased Ambit Biosciences (KINOMEscan)
Protocol: (§1) Also included in the kinase profile are four isoforms of PKC (δ, ε, η, θ) and eight isoforms of CAMKs (CAMKIα, δ, γ; CAMKIIα, β, δ, γ; CAMK4).
(§2) The global kinase profiling experiment was performed by Ambit Biosciences.

DDR2 = molecular target: T2, DDR2 (Homo sapiens, UniProt Q16832)
T2 construct: purchased Ambit Biosciences (KINOMEscan)
T2 sequence (Q16832 22-855): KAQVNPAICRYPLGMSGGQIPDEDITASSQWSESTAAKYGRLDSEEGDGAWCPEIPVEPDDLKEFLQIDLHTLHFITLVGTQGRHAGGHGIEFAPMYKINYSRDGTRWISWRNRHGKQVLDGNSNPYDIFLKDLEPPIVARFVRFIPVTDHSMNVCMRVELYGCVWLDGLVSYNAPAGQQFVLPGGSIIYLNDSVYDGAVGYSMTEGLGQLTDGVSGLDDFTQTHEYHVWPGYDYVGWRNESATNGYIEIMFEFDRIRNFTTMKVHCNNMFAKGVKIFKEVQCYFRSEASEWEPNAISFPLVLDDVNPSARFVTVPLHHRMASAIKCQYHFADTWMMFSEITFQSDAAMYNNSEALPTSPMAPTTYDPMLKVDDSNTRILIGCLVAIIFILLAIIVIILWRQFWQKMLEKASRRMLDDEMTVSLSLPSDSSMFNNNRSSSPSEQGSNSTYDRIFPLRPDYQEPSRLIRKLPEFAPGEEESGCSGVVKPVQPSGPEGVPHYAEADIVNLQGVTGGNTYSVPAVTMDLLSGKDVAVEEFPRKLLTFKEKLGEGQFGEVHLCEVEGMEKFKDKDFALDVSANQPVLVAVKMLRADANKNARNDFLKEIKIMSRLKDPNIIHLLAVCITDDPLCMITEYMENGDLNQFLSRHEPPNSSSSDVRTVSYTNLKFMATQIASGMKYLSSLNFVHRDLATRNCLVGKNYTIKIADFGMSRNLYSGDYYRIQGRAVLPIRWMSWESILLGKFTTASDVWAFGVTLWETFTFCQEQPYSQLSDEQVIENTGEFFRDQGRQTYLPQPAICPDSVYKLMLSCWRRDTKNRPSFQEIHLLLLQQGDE
Protocol: as §1, §2

ERK2 = molecular target: T3, ERK2 (Homo sapiens, UniProt P28482)
T3 construct: purchased Ambit Biosciences (KINOMEscan)
Protocol: as §1, §2

HPK1 = molecular target: T4, HPK1 (Homo sapiens, UniProt Q92918)
T4 construct: purchased Ambit Biosciences (KINOMEscan)
Protocol: as §1, §2

PAK4 = molecular target: T5, PAK4 (Homo sapiens, UniProt O96013)
T5 construct: purchased Ambit Biosciences (KINOMEscan)
Protocol: as §1, §2

STK36 = molecular target: T6, STK36 (Homo sapiens, UniProt Q9NRP7)
T6 construct: purchased Ambit Biosciences (KINOMEscan)
T6 sequence (Q9NRP7 1-1315): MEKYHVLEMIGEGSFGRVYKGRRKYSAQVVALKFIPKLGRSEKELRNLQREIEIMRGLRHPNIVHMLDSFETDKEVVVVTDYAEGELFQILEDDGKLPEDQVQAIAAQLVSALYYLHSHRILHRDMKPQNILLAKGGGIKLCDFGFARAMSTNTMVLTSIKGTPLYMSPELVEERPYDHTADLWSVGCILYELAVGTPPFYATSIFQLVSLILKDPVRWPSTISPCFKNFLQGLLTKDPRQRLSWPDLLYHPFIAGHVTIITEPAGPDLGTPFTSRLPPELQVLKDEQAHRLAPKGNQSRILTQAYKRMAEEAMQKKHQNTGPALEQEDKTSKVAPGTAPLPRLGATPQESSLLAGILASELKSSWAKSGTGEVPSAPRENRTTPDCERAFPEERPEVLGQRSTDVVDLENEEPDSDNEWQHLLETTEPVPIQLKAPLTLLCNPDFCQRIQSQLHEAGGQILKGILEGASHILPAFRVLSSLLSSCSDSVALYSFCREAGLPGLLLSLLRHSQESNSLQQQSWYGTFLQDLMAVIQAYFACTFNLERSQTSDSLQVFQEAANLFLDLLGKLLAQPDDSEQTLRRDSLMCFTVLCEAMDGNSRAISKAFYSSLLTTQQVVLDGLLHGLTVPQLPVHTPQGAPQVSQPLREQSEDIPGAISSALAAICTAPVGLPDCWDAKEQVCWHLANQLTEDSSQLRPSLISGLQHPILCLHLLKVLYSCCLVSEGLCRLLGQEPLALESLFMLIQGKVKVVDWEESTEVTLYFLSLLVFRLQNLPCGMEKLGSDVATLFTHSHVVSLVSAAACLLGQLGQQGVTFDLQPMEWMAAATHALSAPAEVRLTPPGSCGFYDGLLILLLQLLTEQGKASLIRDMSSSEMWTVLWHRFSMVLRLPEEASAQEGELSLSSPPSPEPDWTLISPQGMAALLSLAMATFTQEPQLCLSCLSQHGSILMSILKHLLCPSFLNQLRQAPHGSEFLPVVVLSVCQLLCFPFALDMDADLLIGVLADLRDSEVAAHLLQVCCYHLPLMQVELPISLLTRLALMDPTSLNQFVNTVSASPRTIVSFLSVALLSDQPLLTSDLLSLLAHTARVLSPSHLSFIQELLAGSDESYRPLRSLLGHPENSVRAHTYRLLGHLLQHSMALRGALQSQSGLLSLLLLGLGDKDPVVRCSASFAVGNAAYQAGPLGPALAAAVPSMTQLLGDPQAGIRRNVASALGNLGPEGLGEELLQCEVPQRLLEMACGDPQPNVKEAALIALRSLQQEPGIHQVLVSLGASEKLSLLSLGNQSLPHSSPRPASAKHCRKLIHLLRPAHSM
Protocol: as §1, §2

T1 sequence (Q14012 whole entry): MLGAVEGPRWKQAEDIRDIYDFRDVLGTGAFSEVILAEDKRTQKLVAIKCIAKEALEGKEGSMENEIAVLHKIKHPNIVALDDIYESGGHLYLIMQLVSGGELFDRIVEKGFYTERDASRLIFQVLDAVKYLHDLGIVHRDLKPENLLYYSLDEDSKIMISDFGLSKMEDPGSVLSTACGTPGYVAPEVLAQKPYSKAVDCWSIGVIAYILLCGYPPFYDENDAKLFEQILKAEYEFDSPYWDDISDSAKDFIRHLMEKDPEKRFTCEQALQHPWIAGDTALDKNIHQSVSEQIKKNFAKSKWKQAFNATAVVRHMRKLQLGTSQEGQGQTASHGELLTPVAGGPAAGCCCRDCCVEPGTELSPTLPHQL
T3 sequence (P28482 whole entry): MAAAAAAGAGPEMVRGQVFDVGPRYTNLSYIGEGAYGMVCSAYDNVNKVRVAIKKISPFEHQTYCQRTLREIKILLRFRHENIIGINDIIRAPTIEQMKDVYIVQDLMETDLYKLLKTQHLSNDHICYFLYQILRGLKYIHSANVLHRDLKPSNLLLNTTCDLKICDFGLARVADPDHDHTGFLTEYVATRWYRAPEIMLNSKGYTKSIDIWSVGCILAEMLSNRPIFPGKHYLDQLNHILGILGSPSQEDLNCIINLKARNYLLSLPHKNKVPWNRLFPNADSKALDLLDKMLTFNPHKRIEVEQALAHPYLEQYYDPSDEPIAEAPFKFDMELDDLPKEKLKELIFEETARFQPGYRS
T5 sequence (O96013 whole entry): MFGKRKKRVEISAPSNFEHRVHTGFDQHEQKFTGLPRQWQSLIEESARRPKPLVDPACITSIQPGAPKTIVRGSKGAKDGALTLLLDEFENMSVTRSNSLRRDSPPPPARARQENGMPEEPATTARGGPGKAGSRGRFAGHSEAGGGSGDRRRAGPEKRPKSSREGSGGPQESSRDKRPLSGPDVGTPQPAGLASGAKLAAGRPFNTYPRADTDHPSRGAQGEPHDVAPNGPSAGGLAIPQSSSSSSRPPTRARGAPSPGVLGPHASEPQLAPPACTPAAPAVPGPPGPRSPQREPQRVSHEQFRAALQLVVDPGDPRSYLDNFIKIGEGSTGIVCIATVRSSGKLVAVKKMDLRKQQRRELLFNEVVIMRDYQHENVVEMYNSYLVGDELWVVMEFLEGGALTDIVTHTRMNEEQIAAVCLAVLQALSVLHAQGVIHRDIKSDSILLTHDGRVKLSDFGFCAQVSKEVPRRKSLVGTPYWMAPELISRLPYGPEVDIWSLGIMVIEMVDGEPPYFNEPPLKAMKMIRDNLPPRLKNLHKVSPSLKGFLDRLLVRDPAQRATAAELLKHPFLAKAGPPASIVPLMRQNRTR
T4 sequence (Q92918 whole entry): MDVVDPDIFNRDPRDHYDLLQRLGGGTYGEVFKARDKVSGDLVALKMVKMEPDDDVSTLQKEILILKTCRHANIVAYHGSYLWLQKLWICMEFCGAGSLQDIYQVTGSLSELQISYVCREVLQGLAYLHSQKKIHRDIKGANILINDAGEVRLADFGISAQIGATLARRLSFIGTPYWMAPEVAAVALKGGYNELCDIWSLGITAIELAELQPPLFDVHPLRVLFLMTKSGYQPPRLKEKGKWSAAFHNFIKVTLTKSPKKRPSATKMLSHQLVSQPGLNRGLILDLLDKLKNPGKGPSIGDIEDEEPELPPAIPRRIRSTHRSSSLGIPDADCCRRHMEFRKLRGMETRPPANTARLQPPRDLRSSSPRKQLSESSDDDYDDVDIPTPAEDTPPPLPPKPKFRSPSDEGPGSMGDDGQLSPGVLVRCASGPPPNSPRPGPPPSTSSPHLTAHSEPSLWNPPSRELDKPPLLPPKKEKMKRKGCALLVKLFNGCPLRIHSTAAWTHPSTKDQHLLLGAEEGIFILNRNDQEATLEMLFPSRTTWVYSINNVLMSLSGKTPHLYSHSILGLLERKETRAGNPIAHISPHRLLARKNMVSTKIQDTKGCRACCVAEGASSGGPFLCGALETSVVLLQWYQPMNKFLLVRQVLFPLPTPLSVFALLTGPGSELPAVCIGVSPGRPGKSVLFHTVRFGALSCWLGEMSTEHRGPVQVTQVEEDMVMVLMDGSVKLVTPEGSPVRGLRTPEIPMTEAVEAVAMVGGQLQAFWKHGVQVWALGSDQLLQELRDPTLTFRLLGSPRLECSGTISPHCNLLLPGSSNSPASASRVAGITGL

inhibition at 10 µM (DDR2; DDR2, 10 µM, read-out: % Competition) [%] | inhibition at 10 µM (ERK2; ERK2, 10 µM, read-out: % Competition) [%] | inhibition at 10 µM (HPK1; HPK1, 10 µM, read-out: % Competition) [%] | inhibition at 10 µM (PAK4; PAK4, 10 µM, read-out: % Competition) [%] | inhibition at 10 µM (STK36; STK36, 10 µM, read-out: % Competition) [%] | inhibition at 10 µM (CAMKIα; CAMK1, compound concentration 10 uM, read-out: Percent Competition) [%] | inhibition at 10 µM (DDR2; DDR2, compound concentration 10 uM, read-out: Percent Competition) [%] | inhibition at 10 µM (ERK2; ERK2, compound concentration 10 uM, read-out: Percent Competition) [%] | inhibition at 10 µM (HPK1; HPK1, compound concentration 10 uM, read-out: Percent Competition) [%] | inhibition at 10 µM (PAK4; PAK4, compound concentration 10 uM, read-out: Percent Competition) [%] | inhibition at 10 µM (STK36; STK36, compound concentration 10 uM, read-out: Percent Competition) [%] | SMILES | competition (CAMKIα) [%] | inhibition at 10 µM (DDR2; read-out: % Competition) [%] | inhibition at 10 µM (ERK2; read-out: % Competition) [%] | inhibition at 10 µM (HPK1; read-out: % Competition) [%] | inhibition at 10 µM (PAK4; read-out: % Competition) [%] | inhibition at 10 µM (STK36; read-out: % Competition, STK36, 10 µM) [%]
100 | 87 | 67 | 82 | 100 |  |  |  |  |  |  | Fc1ccc(-c2c(-c3ccncc3)[nH]c3nccnc23)cc1 [Compound 122] | < 50 |  |  |  |  | 
 |  |  |  |  |  |  |  |  |  |  | CC(O)CNc1cc(-c2[nH]c3cccnc3c2-c2ccc(F)cc2)ccn1 (stereo not drawn) [Compound 140] | < 50 | 67 | < 50 | < 50 | < 50 | 99 to 100
 |  |  |  |  | < 50 | 100 | 87 | 67 | 82 | 100 | Fc1ccc(-c2c(-c3ccncc3)[nH]c3nccnc23)cc1 [RO1155697-000-005] |  |  |  |  |  | 
